Assay [1] concerns the target T1, human calcitonin receptor (Homo sapiens, UniProt P30988).
T1 construct: expressed in transfected cells; host or cells: BHK tk'ts 13
T1 sequence (P30988 25-474): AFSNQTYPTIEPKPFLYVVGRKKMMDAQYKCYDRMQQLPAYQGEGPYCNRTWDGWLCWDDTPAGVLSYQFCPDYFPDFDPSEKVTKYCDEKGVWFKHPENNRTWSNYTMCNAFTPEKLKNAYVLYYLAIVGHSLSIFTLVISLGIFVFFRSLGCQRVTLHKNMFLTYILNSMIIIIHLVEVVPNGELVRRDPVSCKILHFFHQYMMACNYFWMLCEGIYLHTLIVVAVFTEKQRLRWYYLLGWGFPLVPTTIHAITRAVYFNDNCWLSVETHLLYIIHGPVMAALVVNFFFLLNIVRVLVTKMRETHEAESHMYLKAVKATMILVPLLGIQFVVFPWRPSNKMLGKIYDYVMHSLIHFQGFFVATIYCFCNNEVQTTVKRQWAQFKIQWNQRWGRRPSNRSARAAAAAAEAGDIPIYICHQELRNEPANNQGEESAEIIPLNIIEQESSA
Description: Assay (VII) binding to the human calcitonin receptor (membrane, SPA). The settings on record: membranes, 125I-Calcitonin; read-out: hCT-R binding IC50. As for the experimental part: Assay (VII)—Determination of Binding to the Human Calcitonin Receptor (Membrane)
The binding assay was performed using scintillation proximity assay (SPA) beads (RPNQ0001) from PerkinElmer® and cell membranes prepared from a BHK tk'ts 13 cell line was stably transfected with the human calcitonin receptor and a CRE-responsive luciferase reporter gene. Membranes were prepared in the following way; the cells were rinsed with PBS and incubated with Versene for approximately 5 min before harvesting. The cells were flushed with PBS and the cell-suspension was centrifuged for 5 min at 1000 rpm. Cells were homogenized in a buffer containing 20 mM Na-HEPES and 10 mM EDTA (pH 7.4) and centrifuged at 20.000 rpm for 15 min. The resulting pellet was resuspended, homogenized and centrifuged (20.000 rpm, 15 min) in a buffer containing 20 mM Na-HEPES and 0.1 mM EDTA (pH 7.4, buffer 2). The resulting pellet was resuspended in buffer 2 and protein concentration was tested (BCA protein Assay, Pierce). The homogenate was kept cold during the whole procedure. The membranes were kept at −80° C. until use. Assay was performed in a 384 well Optiplate (PerkinElmer®) in a total volume of 40 ul. Membranes were mixed with SPA beads. Final concentration of membranes 35 ng/μL final and Final concentration of SPA beads was 0.05 mg/well. Test-compounds were dissolved in DMSO and further diluted in assay buffer (50 mM Hepes, pH 7.4, 1 mM CaCl2, 5 mM MgCl2, 0.1% OA and 0.02% Tween20). Radioligand ^125I-Calcitonin was dissolved in assay buffer and added to the Optiplate at a final concentration of 75 pM/well (approx. 30.000 cpm/10 ul). The final mixture was incubated for 120 min with shaking at 400 rpm at 25° C. prior to centrifugation (1500 rpm, 10 min). Samples were analyzed on TopCounter™ (Packard). The IC50 was calculated using (one site binding competition analysis) GraphPad Prism5 as a measure of receptor affinity.

For assay [2], the target named is T2, human calcitonin (a) receptor, BHK570 cells (Homo sapiens, UniProt P30988).
T2 construct: host or cells: BHK570
T2 sequence (P30988 25-474): T1 sequence (P30988 25-474)
Description: Assay (II)a functional CRE-luciferase assay with albumin, human calcitonin receptor. The settings on record: Tested with HSA; read-out: hCTR funct. EC50. Format: cell-based. In outline:
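BHK570 cells stably carry a CRE-luciferase reporter and the calcitonin receptor; co-transfected RAMP-3 gives the amylin 3(a) receptor line. Cells were treated for 3 h at 37 °C in DMEM with 10% FBS and 10 mM Hepes, pH 7.4. cAMP-driven luciferase was read by LucLite luminescence after 30 min at RT.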

The target in assay [3] is T2, human calcitonin (a) receptor, BHK570 cells. As to the kind of experiment: Assay (II)b functional CRE-luciferase assay without albumin, human calcitonin receptor. Format: cell-based. Particulars: Tested without HSA; read-out: hCTR funct. EC50. The procedure, abridged:
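BHK570 cells stably expressing human calcitonin receptor with CRE-luciferase reporter, plus RAMP-3 for the amylin 3(a) line. Cells stimulated 3 hours at 37 °C in albumin-free assay medium (0.1% ovalbumin, 10 mM Hepes pH 7.4); cAMP-driven luciferase read by luminescence.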

Numbered stars: 1 amine (or outer) side, 2 acyl side, 3 side chain; on linkers, the order of the positions; unused ones are H or OH. Side chains are listed from the residue outwards. Peptide text beside a SMILES is read from it. * marks the point of attachment. C20 diacid = O=C(O)CCCCCCCCCCCCCCCCCCC(=O)*; C18 diacid = O=C(O)CCCCCCCCCCCCCCCCC(=O)*; γGlu = O=C(O)[C@H](CCC(=O)[*:2])N[*:1]

A word on the IC50: it is the concentration needed to halve the response being measured. By EC50 is commonly meant the concentration giving half of the maximal effect.

Regarding `CC(C)C[C@H](NC(=O)[C@H](C)NC(=O)[C@H](C)NC(=O)[C@@H](NC(=O)[C@H](CO)NC(=O)[C@H](CC(C)C)NC(=O)[C@H](CCC(=O)O)NC(=O)[C@H](CO)NC(=O)[C@H](C)NC(=O)[C@H](C)NC(=O)CC[C@H](NC(=O)CCCCCCCCCCCCCCCCCCC(=O)O)C(=O)O)[C@@H](C)O)C(=O)NCC(=O)N[C@@H](CCCNC(=N)N)C(=O)N[C@@H](CC(C)C)C(=O)N[C@@H](CO)C(=O)N[C@@H](C)C(=O)N[C@@H](CCC(=O)O)C(=O)N[C@@H](CC(C)C)C(=O)N[C@@H](Cc1c[nH]cn1)C(=O)N[C@@H](CCC(=O)O)C(=O)N[C@@H](CC(C)C)C(=O)N[C@@H](C)C(=O)N[C@H](C(=O)N[C@@H](Cc1ccc(O)cc1)C(=O)N1CCC[C@H]1C(=O)N[C@@H](CCCNC(=N)N)C(=O)N[C@H](C(=O)N[C@@H](CCC(=O)O)C(=O)N[C@H](C(=O)NCC(=O)N[C@@H](CO)C(=O)NCC(=O)N[C@@H](CO)C(=O)N1CCC[C@H]1C(N)=O)[C@@H](C)O)[C@@H](C)O)[C@@H](C)O` [compound 57, [N-terminal(C20 diacid-gGlu), 1A, 23Y, 30S, 31G]mimylin] ({C20 diacid-γGlu}-AASELSTAALGRLSAELHELATYPRTETGSGSP-NH2), the IC50 in assay [1] came out at 0.108 nM. Also, the EC50 in assay [2] was 0.051 nM; in assay [3], 0.022 nM.
In the same order, the values of `CC(=O)N[C@@H](C)C(=O)N[C@@H](CO)C(=O)N[C@@H](CCCCNC(=O)CC[C@H](NC(=O)CCCCCCCCCCCCCCCCCCC(=O)O)C(=O)O)C(=O)N[C@@H](CC(C)C)C(=O)N[C@@H](CO)C(=O)N[C@H](C(=O)N[C@@H](C)C(=O)N[C@@H](C)C(=O)N[C@@H](CC(C)C)C(=O)NCC(=O)N[C@@H](CCCNC(=N)N)C(=O)N[C@@H](CC(C)C)C(=O)N[C@@H](CO)C(=O)N[C@@H](C)C(=O)N[C@@H](CCC(=O)O)C(=O)N[C@@H](CC(C)C)C(=O)N[C@@H](Cc1c[nH]cn1)C(=O)N[C@@H](CCC(=O)O)C(=O)N[C@@H](CC(C)C)C(=O)N[C@@H](C)C(=O)N[C@H](C(=O)N[C@@H](CC(C)C)C(=O)N1CCC[C@H]1C(=O)N[C@@H](CCCNC(=N)N)C(=O)N[C@H](C(=O)N[C@@H](CCC(=O)O)C(=O)N[C@H](C(=O)NCC(=O)N[C@@H](CO)C(=O)NCC(=O)N[C@@H](CO)C(=O)N1CCC[C@H]1C(N)=O)[C@@H](C)O)[C@@H](C)O)[C@@H](C)O)[C@@H](C)O` [compound 68, [N-terminal(acetyl), des1, 4K(C20 diacid-gGlu), 30S, 31G]mimylin] (Ac-ASK([γGlu-C20 diacid])LSTAALGRLSAELHELATLPRTETGSGSP-NH2) are 0.01 nM, 0.037 nM and 0.027 nM.
For `CC(C)C[C@H](NC(=O)[C@H](CCC(=O)O)NC(=O)[C@H](C)NC(=O)[C@@H](NC(=O)[C@H](CC(C)C)NC(=O)[C@H](CCCNC(=N)N)NC(=O)CNC(=O)[C@H](CC(C)C)NC(=O)[C@@H](NC(=O)[C@H](C)NC(=O)[C@@H](NC(=O)[C@@H](NC(=O)[C@H](CC(C)C)NC(=O)[C@H](CCC(=O)O)NC(=O)[C@H](CO)NC(=O)[C@H](C)NC(=O)CC[C@H](NC(=O)CCCCCCCCCCCCCCCCC(=O)O)C(=O)O)[C@@H](C)O)[C@@H](C)O)C(C)C)[C@@H](C)O)C(=O)N[C@@H](Cc1c[nH]cn1)C(=O)N[C@@H](CCC(=O)O)C(=O)N[C@@H](CC(C)C)C(=O)N[C@@H](CCC(=O)O)C(=O)N[C@H](C(=O)N[C@@H](CC(C)C)C(=O)N1CCC[C@H]1C(=O)N[C@@H](CCCNC(=N)N)C(=O)N[C@H](C(=O)N[C@@H](CCC(=O)O)C(=O)N[C@H](C(=O)NCC(=O)N[C@H](C(=O)NCC(=O)N[C@H](C(=O)N1CCC[C@H]1C(N)=O)[C@@H](C)O)[C@@H](C)O)[C@@H](C)O)[C@@H](C)O)[C@@H](C)O` [compound 105, [N-terminal(C18 diacid-gGlu), des1, 6T, 9V, 14T, 21E, 30T, 31G, 32T]mimylin] ({C18 diacid-γGlu}-ASELTTAVLGRLTAELHELETLPRTETGTGTP-NH2), the IC50 in assay [1] is 0.222 nM. The EC50 in assay [2] was found to be 0.022 nM; in assay [3], 0.045 nM.
With `CC(C)C[C@H](NC(=O)[C@H](CCCNC(=N)N)NC(=O)CNC(=O)[C@H](CC(C)C)NC(=O)[C@@H](NC(=O)[C@H](C)NC(=O)[C@@H](NC(=O)[C@H](CO)NC(=O)[C@H](CC(C)C)NC(=O)[C@H](CCC(=O)O)NC(=O)[C@H](CO)NC(=O)[C@H](C)NC(=O)CC[C@H](NC(=O)CCCCCCCCCCCCCCCCCCC(=O)O)C(=O)O)[C@@H](C)O)C(C)C)C(=O)N[C@@H](CO)C(=O)N[C@@H](CCC(N)=O)C(=O)N[C@@H](CCC(=O)O)C(=O)N[C@@H](CC(C)C)C(=O)N[C@@H](Cc1c[nH]cn1)C(=O)N[C@@H](CCC(=O)O)C(=O)N[C@@H](CC(C)C)C(=O)N[C@@H](CCC(N)=O)C(=O)N[C@H](C(=O)N[C@@H](Cc1ccc(O)cc1)C(=O)N1CCC[C@H]1C(=O)N[C@@H](CCCNC(=N)N)C(=O)N[C@H](C(=O)N[C@@H](CCC(=O)O)C(=O)N[C@H](C(=O)NCC(=O)N[C@@H](CO)C(=O)NCC(=O)N[C@H](C(=O)N[C@@H](Cc1ccc(O)cc1)C(N)=O)[C@@H](C)O)[C@@H](C)O)[C@@H](C)O)[C@@H](C)O` [compound 114, [N-terminal(C20 diacid-gGlu), des1, 9V, 15Q, 21Q, 23Y, 30S, 31G, 32T, 33Y]mimylin], the IC50 in assay [1] worked out at 0.085 nM. The EC50 in assay [2] stood at 0.097 nM.

The values above are taken from US9593149B2, “Amylin and calcitonin receptor agonist” (Novo Nordisk A/S, priority 2014, dated 2017).
